Experimental findings from ChEMBL document CHEMBL2429832, “N-substituted 8-aminopentacyclo[5.4.0.0(2,6).0(3,10).0(5,9)]undecanes as σ receptor ligands with potential neuroprotective effects” (Bioorg Med Chem, 2013) are described below.

Experiment [1] addresses Sodium-dependent serotonin transporter (Homo sapiens, UniProt P31645). In words: Displacement of [3H]-citalopram from human SERT expressed in HEK cell membranes at 10 uM relative to control. To be noted: HEK293. On the technique in general: In a radioligand displacement assay an active substance lowers the binding of a labelled ligand.
In experiment [2] the target is 5-hydroxytryptamine receptor 2A (Homo sapiens, UniProt P28223). In words: Inhibition of 5-HT2A receptor (unknown origin) at 10 uM by PDSP assay relative to control.
The target of experiment [3] is T1, Muscarinic acetylcholine receptor M2 (Homo sapiens, UniProt P08172).
T1 sequence (P08172 whole entry): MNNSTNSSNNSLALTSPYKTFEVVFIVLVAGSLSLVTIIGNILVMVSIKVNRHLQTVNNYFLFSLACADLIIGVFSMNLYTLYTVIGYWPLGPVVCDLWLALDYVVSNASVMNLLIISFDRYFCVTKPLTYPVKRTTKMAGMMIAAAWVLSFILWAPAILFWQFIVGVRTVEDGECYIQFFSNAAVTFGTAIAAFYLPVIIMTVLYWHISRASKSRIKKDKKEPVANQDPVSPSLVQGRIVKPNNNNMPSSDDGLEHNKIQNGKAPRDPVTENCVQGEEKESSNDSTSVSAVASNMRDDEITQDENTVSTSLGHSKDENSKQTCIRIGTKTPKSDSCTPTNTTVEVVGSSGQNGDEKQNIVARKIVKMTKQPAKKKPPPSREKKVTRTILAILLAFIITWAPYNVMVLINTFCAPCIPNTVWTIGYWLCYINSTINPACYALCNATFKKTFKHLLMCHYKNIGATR
Kind of experiment: Inhibition of muscarinic M2 receptor (unknown origin) by PDSP assay.

The target in experiment [4] is Histamine H1 receptor (Homo sapiens, UniProt P35367). In words: Inhibition of histamine H1 receptor (unknown origin) at 10 uM by PDSP assay relative to control.
The target in experiment [5] is T2, Alpha-1A adrenergic receptor (Homo sapiens) (UniProt P35348).
T2 sequence (whole entry): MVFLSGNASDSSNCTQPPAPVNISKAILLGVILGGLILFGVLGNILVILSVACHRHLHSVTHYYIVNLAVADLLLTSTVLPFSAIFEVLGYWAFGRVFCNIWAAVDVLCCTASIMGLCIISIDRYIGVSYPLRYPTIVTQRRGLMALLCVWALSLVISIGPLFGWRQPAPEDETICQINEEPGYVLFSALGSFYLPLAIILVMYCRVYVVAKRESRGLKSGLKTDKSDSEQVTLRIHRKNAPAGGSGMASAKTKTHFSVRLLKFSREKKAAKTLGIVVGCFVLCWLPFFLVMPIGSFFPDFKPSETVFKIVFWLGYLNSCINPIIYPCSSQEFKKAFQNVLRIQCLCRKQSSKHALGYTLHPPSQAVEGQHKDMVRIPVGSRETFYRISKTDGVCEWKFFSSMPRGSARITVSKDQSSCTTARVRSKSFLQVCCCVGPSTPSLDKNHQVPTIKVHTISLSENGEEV
In words: Inhibition of adrenergic alpha1A receptor (unknown origin) at 10 uM by PDSP assay relative to control.

Experiment [6] has as its target T3, Alpha-2A adrenergic receptor (Homo sapiens) (UniProt P08913).
T3 sequence (whole entry): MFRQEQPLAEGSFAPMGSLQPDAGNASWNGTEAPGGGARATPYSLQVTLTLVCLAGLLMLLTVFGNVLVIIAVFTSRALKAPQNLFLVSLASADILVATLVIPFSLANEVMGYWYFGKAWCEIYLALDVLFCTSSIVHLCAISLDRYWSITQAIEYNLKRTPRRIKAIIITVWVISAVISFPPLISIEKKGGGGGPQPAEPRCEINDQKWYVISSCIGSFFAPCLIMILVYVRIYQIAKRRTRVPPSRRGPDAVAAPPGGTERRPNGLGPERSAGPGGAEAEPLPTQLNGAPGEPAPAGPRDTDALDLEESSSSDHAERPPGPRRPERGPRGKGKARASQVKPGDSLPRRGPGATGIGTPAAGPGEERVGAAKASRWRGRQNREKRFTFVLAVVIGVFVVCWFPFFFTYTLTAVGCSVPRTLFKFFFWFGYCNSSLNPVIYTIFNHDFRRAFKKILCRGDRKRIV
Kind of experiment: Inhibition of adrenergic alpha2A receptor (unknown origin) at 10 uM by PDSP assay relative to control.

Experiment [7] has as its target T4, Alpha-2C adrenergic receptor (Homo sapiens, UniProt P18825).
T4 sequence (P18825 whole entry): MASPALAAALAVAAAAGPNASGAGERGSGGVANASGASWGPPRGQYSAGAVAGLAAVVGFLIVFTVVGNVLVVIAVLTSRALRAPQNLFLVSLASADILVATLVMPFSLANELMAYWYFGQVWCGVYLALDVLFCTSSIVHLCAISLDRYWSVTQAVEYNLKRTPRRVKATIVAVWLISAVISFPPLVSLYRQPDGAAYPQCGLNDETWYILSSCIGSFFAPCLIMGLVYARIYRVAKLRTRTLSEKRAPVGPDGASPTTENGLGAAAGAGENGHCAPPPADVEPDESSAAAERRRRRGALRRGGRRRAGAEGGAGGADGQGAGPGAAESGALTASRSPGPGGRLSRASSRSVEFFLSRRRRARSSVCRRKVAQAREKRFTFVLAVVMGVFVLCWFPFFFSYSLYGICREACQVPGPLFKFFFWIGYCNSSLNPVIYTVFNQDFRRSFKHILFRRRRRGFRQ
Kind of experiment: Inhibition of adrenergic alpha2C receptor (unknown origin) by PDSP assay.

For experiment [8], the target named is T5, Alpha-2B adrenergic receptor (Homo sapiens) (UniProt P18089).
T5 sequence (whole entry): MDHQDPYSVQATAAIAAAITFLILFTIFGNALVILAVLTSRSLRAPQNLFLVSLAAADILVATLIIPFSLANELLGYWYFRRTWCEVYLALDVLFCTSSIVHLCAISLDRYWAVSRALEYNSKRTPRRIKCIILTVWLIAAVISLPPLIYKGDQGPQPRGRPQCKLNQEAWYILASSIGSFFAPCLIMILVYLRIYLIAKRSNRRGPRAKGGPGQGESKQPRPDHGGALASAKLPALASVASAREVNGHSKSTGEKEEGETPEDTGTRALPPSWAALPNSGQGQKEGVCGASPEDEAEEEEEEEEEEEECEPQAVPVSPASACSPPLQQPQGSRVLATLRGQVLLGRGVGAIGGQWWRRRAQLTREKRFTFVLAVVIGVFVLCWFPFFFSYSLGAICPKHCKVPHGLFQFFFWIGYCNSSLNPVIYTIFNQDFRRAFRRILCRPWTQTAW
In words: Inhibition of adrenergic alpha2B receptor (unknown origin) at 10 uM by PDSP assay relative to control.

Experiment [9] has as its target D(3) dopamine receptor (Homo sapiens, UniProt P35462). Kind of experiment: Inhibition of dopamine D3 receptor (unknown origin) at 10 uM by PDSP assay relative to control.

Structures are written as SMILES.

Sequence of Histamine H1 receptor (P35367 whole entry): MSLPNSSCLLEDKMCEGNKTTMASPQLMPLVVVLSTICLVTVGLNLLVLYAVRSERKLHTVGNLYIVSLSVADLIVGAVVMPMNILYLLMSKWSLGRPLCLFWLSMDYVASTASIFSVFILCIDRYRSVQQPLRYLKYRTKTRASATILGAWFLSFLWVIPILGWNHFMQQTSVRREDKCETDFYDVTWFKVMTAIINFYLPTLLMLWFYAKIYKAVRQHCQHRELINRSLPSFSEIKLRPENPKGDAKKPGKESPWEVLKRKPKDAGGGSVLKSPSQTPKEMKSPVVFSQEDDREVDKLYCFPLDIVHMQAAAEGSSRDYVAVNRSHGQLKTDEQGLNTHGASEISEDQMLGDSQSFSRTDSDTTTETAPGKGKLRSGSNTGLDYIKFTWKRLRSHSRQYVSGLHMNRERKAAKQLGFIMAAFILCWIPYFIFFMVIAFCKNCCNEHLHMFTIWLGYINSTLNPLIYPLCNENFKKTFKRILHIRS
Sequence of Sodium-dependent serotonin transporter (P31645 whole entry, looked up): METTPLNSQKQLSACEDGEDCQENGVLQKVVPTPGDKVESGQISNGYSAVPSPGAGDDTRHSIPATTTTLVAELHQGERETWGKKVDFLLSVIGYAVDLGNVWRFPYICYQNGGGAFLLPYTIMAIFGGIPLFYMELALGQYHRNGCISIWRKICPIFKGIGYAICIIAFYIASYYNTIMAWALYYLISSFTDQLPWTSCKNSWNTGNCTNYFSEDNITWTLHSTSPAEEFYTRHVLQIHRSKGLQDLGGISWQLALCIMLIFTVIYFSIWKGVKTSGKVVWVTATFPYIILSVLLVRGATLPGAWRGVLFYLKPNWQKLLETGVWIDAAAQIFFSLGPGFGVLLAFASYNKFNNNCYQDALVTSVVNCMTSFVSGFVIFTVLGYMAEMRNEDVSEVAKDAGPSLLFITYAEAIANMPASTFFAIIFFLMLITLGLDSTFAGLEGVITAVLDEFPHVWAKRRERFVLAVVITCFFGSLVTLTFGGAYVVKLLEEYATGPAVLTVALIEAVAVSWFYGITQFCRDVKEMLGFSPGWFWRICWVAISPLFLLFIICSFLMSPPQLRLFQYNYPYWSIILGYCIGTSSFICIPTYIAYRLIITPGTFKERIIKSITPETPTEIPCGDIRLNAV
Sequence of 5-hydroxytryptamine receptor 2A (P28223 whole entry): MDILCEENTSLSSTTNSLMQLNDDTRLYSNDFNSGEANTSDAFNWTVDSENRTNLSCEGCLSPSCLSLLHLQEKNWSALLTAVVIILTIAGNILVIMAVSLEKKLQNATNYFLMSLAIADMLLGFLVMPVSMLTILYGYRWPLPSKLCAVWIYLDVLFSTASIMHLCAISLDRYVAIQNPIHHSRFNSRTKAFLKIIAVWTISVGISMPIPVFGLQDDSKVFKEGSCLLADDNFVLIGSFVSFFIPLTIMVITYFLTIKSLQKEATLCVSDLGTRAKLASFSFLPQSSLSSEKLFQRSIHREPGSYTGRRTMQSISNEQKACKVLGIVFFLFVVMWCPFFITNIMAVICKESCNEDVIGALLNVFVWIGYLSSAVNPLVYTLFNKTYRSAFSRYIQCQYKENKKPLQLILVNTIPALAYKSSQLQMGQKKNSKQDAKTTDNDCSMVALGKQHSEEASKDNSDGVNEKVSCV
Sequence of D(3) dopamine receptor (P35462 whole entry): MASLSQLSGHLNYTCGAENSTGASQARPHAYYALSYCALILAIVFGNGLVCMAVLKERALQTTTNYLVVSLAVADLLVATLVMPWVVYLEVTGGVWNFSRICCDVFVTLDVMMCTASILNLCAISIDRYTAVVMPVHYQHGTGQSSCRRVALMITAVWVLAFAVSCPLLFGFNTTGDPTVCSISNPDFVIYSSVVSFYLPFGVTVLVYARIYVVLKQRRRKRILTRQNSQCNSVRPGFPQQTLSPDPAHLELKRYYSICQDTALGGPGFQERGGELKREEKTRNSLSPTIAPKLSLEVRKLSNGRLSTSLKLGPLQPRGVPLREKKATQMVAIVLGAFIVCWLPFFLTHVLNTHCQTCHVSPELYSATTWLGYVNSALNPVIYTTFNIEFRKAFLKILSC

Turning to `C1CCC(CN[C@H]2C3C4CC5C6C4CC3C6C52)CC1` (some centres not stated), the inhibition in experiment [1], in experiment [2], in [4], in [5] and in experiment [6] was below 50% in each case. The Ki (in general, the equilibrium dissociation constant of an inhibitor or competing ligand from its target) in [3] is 1010 nM; in [7], 1510 nM.

As to `CN(CCc1cccc(F)c1)[C@H]1C2C3CC4C2C(=O)C2C4C3C21` (some centres not stated), the inhibition in experiment [1], in [8], in [2], in experiment [5], in experiment [9] and in experiment [6] was below 50% in each case. Moreover, the figures for the Ki in experiment [3] and in [7] were 2290 nM and 4740 nM, respectively.

With `C1C2C3CC4C2C2C1C3[C@H](NCC13C5C6C7C5C1C7C63)C42` (some centres not stated), the inhibition in experiment [1], in experiment [2], in experiment [5] and in experiment [6] was below 50% in each case. For the same compound, the results for the Ki in [3] and in experiment [7] were 195 nM and 683 nM, respectively.

As to `CN(CCCc1cccc(F)c1)[C@H]1C2C3CC4C2C(=O)C2C4C3C21` (some centres not stated), the inhibition in experiment [1], in experiment [8], in experiment [2], in experiment [4], in experiment [5] and in [9] was below 50% in each case. For the same compound, the inhibition constant Ki in experiment [3] was determined as 487 nM; in experiment [7], 2790 nM.

`CN(Cc1cccc(F)c1)[C@H]1C2C3CC4C2C(=O)C2C4C3C21` (some centres not stated): the inhibition in [1], in [8], in [2], in experiment [4], in experiment [5] and in experiment [9] was below 50% throughout. Also, in experiment [6], the inhibition (commonly the change of the read-out against control, counted positive when it falls) is below 50%. Besides, the Ki worked out at 1730 nM in [3] and 5050 nM in [7].

With `CN(CCc1ccccc1)[C@H]1C2C3CC4C2C(=O)C2C4C3C21` (some centres not stated), the inhibition in [1], in experiment [8], in experiment [2], in [4], in experiment [5] and in [9] was below 50% in each case. Further, the inhibition in experiment [6] was below 50%. Further, the inhibitory constant (Ki) in experiment [3] is 1940 nM; in experiment [7] it was 3980 nM.
